For data set [1], the target named is T1, SMYD2 (Homo sapiens, UniProt Q9NRG4). Description: SMYD2 biochemical methylation assay (3H-SAM, H3,1–29 peptide, flashplate). Also noted: Full length FLAG-SMYD2 and C-terminally Avi-tagged full length SMYD2 (SMYD2-Avi) were cloned into pFastbac vectors; FLAG (N); His tag with TEV cleavage site (N, cleaved yes); made in house; host or cells: Sf9 insect cells (baculovirus). Here is the method: Full length FLAG-SMYD2 and C-terminally Avi-tagged full length SMYD2 (SMYD2-Avi) were cloned into pFastbac vectors containing an N-terminal His tag with TEV cleavage site. Virus production was performed using standard protocols and the proteins were coexpressed in either Sf9 (SMYD2) or Hi Five (SMYD2-Avi) cells. After harvest by centrifugation, cell pellets for both proteins were resuspended, sonicated, and then centrifuged to remove cell debris. Protein was purified using nickel affinity chromatography before and after TEV cleavage in a similar fashion as SMYD3. […] SMYD2-Avi was biotinylated using His-tagged BirA enzyme after dialysis into a low salt buffer and the BirA was removed with a final nickel affinity column. […] SMYD3 assays were performed as previously described using N-terminally GST-tagged MAP3K2 protein substrate. […] Reactions were conducted at room temperature with enzyme and inhibitor incubated for 30 minutes before initiating the reaction with substrates. Dose-response curves were tested in duplicate in each experiment. […] Quenched reactions were transferred to a streptavidin-coated flashplate (Perkin Elmer) for capture of the biotinylated peptide. After 2 h incubation at room temperature, the flashplate was washed once with 0.1% Tween-20 and read on a Perkin Elmer Topcount NXT plate reader. Substrate apparent KM values were determined by measuring the initial velocities (v0) in duplicate while varying one substrate at fixed concentration of the second substrate. […] Percent inhibition by compound (% inh) was calculated from Eq 3 %inh=(1-([…] the signal in the presence of compound and max and min are the signals for the DMSO and background controls respectively. […] Mechanism of inhibition was determined by measuring the inhibitor IC50 values while varying the concentration of one substrate at a fixed concentration of the second substrate equal to its KM value. The inhibition constant Ki was calculated from fitting the IC50 versus varied substrate concentration data using the Cheng-Prusoff equations for mixed-type and noncompetitive inhibition below. α is the coefficient accounting for differences in inhibitor affinity between binding enzyme forms after versus before substrate binding.
T1 sequence (Q9NRG4 whole entry): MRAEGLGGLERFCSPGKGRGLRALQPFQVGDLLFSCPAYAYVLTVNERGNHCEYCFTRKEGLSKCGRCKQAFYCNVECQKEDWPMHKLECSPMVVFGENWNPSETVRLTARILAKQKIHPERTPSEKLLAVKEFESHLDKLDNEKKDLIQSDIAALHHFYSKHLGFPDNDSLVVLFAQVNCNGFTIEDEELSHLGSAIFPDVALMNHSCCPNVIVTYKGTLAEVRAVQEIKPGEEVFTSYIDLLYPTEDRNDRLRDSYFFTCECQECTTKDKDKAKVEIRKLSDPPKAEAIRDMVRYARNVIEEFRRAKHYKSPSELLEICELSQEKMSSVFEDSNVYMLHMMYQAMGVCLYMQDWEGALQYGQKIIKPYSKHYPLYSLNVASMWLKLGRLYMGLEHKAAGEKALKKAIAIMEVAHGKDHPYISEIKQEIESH

Data set [2] is described as follows: Hepatocyte stability, mouse. The data set is classed as in vitro ADME, CD-1 mice. The following applies: male, CD-1, mouse, cryopreserved hepatocytes, read-out: CLint measured with hepatocytes, Mouse.
Data set [3] is described as follows: Hepatocyte stability, monkey. The format is in vitro ADME, cyno-monkeys. The following applies: male, cryopreserved hepatocytes, read-out: CLint measured with hepatocytes, Monkey.
Data set [4] is described as follows: Rat pharmacokinetic study. The data set is classed as in vivo, male Sprague Dawley rats. The note with it: male Sprague Dawley. As to the method:
2. […] Food was returned 4 hours after dosing. […] 4. […] Food was returned 4 hours after dosing. […] Supplemental Results:SMYD2 compound characterization […] The […] nM (Figure S8A).

Data set [5] is described as follows: Hepatocyte stability, human. The data set is classed as in vitro ADME, humans. The following applies: for hepatocyte CLint at 1 µM: both sexes, human, cryopreserved hepatocytes, read-out: CLint measured with hepatocytes, Human.
Data set [6] in a line: in vitro. The format is in vitro ADME, beagle dogs. The following applies: male, beagle, dog, microsomes, pH 7.4.
The nature of data set [7]: in vitro. The format is in vitro ADME. The note with it: plasma. As to the method: After stirred for 30 min at 25 °C, NaBH3CN […]
mixture was concentrated under vacuum. […] The combined organic […]
The crude product was further
The fractions containing product were combined and concentrated. […]
cyclopropylisoxazole-3-carboxamide hydrochloride as a light yellow solid.
Media was changed every two or three days. On
95% at 37°C. […] Cells were
At 120 min the companion plate was
Permeability was assessed in duplicate, on two […]
different occasions. […] Compounds were quantified by LC-MS/MS analysis using a 5 point calibration curve.
The permeability coefficient
Solutions of test compounds (1 µM, 0.5% final
Incubations were performed in
Haloperidol was incubated in parallel as the control compound for each species.
(7 points) and protein containing solutions (6 points).
Liver microsome (LM) stability. […]
the reaction. The final incubation volume was 50 µL. Negative control incubations were included where phosphate buffer was […]
min. The negative controls were incubated for 45 min only. […]
µL methanol at the appropriate time points.
Subsequently, intrinsic CL (CLint) was […]

Data set [8] can be described thus: Mouse pharmacokinetic study. The following applies: male, CD-1, mouse; for half-life / Vd / clearance / Tmax / bioavailability: plasma.
Procedure: Mouse, rat, dog and monkey pharmacokinetic studies. The studies were performed in accordance with the AAALAC International
administered intravenousely (1 mg/kg in saline, tail vein injection, 2 mL/kg) and orally (5 mg/kg in 0.5%
MC/0.1% Tween 80, oral gavage, 10 mL/kg). Animals were weighed prior to dose administration and had free
access to water and food. At pre-specified time intervals up to 24 hours post-dose, blood samples (approximately
30 μL) were collected from saphenous vein into polypropylene micro centrifuge tubes (containing 2 μL of 1000
IU/ml Heparin-Na as anticoagulant) and stored on wet ice until processed to plasma by centrifugation (2000 rpm
for 5 min at 4C) within 30 min of collection. In the same study, urine was collected for 24 hours. For
intravenousely (2 mg/kg in ethanol:saline (10:90) solution, tail vein injection, 2 mL/kg) and orally (100 mg/kg in
ethanol:saline (20:80) solution, oral gavage, 10 mL/kg). Animals were weighed prior to dose administration and
Data set [9] has as its target T1, SMYD2. In words: Intracellular BTF3 monomethylation (BTF3me1) western blot. The data set is classed as cell-based. Also noted: endogenous in cells; host or cells: 313 cancer cell lines. The following applies: read-out: Intracellular Methylation IC50. Here is the method:
Cells were lysed in 1X RIPA Buffer containing 10% SDS and Halt™ Protease Inhibitor Cocktail (Thermo Fisher Scientific) and incubated on ice for 30 minutes before sonication (Amplitude 20%/10sec) twice. Lysates were spun at […] at 4°C for 10min and normalized for protein concentration by BCA assay (Thermo Fisher Scientific). […] Blots were imaged using the Odyssey Imaging System (LICOR Biosciences). […] BTF3me1 is a custom generated polyclonal antibody, affinity purified from serum of rabbits injected with adjuvant conjugated peptide corresponding to methylated K1 of BTF3 (K(Me)-[…]).
SMYD2 catalyzes the methylation of lysine residues on several proteins, including BTF3 [40].
For orientation: Immunoblotting shows a protein as a band on a membrane.

The test system of another data set is KYSE-150. Description: Cell proliferation, KYSE-150. The data set is classed as cell-based. The following applies: Homo sapiens, read-out: Cellular Proliferation IC50. Here is the method: Cell lines used in these experiments were obtained from the following sources and were cultured according to conditions specified by the respective cell banks. […] The cell lines listed above were tested for mycoplasma and were negative. Cells were authenticated by STR method or vendor protocols. All 313 cell lines in the CRIPSR pooled screen were purchased from commercial vendors and were STR authenticated and mycoplasma negative. A broad panel of cancer cell lines was screened in the Eurofins Oncopanel. All cells in this panel were mycoplasma negative and STR verified.
Thus, 5 compounds representing 4 distinct pharmacophore series of SMYD2 inhibitors are now available for testing the dependence of cancer lines on SMYD2 activity. […] In stark contrast, however, no correlation is seen between the potency for BTF3 methylation inhibition and anti-proliferative activity among these compounds (Fig 3B).

The structures appear in SMILES notation. “And” between values parts separate entries of the source, which are not always exact repeats. Equal values may be shown once. Where a name gives a salt, the structure may show the parent alone. Bounds are passed on as bounds.

The half-life is the time in which the quantity being followed falls by half. A word on the Tmax: it is the time at which the peak concentration occurs. In general, microsomal CLint refers to the capacity of the preparation to metabolise the compound, expressed as a volume cleared per time. Usually fraction unbound stands for free concentration divided by total concentration. With `NC1CCC(S(=O)(=O)N2C3CCC2CC(NC(=O)c2cc(C4CC4)on2)C3)CC1` [EPZ028862, N-((1R,3R,5S)-8-((1r,4R)-4-aminocyclohexylsulfonyl)-8-aza-bicyclo[3.2.1]octan-3-yl)-5-cyclopropylisoxazole-3-carboxamide hydrochloride], the IC50 at SMYD2 [1] (tested in duplicate, read-out: selectivity panel result, SMYD2 (off-target)) was above 10000 nM. In addition, the hepatocyte CLint at 1 µM in data set [2] was found to be 6.6 µL/min/1e6 cells; in [3] it was 3.2 µL/min/1e6 cells; in data set [5], 4.8 µL/min/1e6 cells. In addition, the bioavailability in data set [4] (plasma, IV 1 mg/kg, PO 5 mg/kg) is 59 ± 10%; in [8] (po, 5 mg/kg), around 100%. Moreover, the half-life in [4] (plasma, IV 1 mg/kg, PO 5 mg/kg) was 2.1 ± 0.2 h; in data set [8] it was 2 h. Further, the clearance in data set [4] (plasma, IV 1 mg/kg, read-out: CLp) is 32.7 ± 4.4 mL/min/kg; in data set [8] (iv, 1 mg/kg), 79.8 mL/min/kg. Further, the Vd in data set [4] (plasma, IV 1 mg/kg, read-out: Vss) is 4.4 ± 0.1 L/kg; in [8] (iv, 1 mg/kg), 9.5 L/kg. Moreover, the Tmax in data set [4] (plasma, PO 5 mg/kg) amounted to 1 h; in data set [8] (po, 5 mg/kg), 0.33 h. For the same compound, the CL renal in data set [4] (urine and plasma, IV 1 mg/kg) amounted to 21 ± 6 mL/min/kg; in [8] (urine and plasma, iv, 1 mg/kg) it was 23.6 mL/min/kg. Also, the “CLint measured with hepatocytes, Human” value in [5] (1 µM) is 3.7 µL/min/106 cells and < 3 µL/min/106 cells. The compound also registered a microsomal CLint at 1 µM in the data set “in vitro [6]” below 3 µL/min/mg. Moreover, the fraction unbound at 16 h, 1 µM in the data set “in vitro [7]” (dog, pH 7.4) worked out at 0.82; in “in vitro [7]” (rat, pH 7.4, Rat fu (unbound fraction)), 0.64.

As a reminder, the Ki is a dissociation constant, usually derived from enzyme kinetics or from competition with a known ligand. For `O=C(NC1CN(Cc2cnn(Cc3ccc(Cl)cc3)c2)C1)c1cn(C2CC2)nn1` [EPZ033294], the “mechanism of inhibition with respect to peptide substrate” value at SMYD2 [1] (1 nM enzyme, 20 nM SAM, varied H3,1–29) is “noncompetitive”. In addition, the IC50 on SMYD2 [1] (IC50 at 20 nM SAM, 1 nM SMYD2, 60 nM H3,1-29, 20 nM SAM) was 2.8 ± 0.4 nM; on SMYD2 [1] (IC50 at 200 nM SAM, 1 nM SMYD2, 60 nM H3,1-29, 200 nM SAM), 3.2 ± 0.5 nM; on SMYD2 [1] (SMYD2, 20 nM SAM, 60 nM H3,1–29 peptide, read-out: Biochemical IC50), 3.9 nM; on SMYD2 [9] it was 2.9 nM; in the data set on KYSE-150, above 40000 nM. Further, on SMYD2 [1] (IC50 compared at two SAM concentrations differing by 10-fold), the “mechanism of inhibition with respect to SAM” value is listed as “either noncompetitive or uncompetitive”. In addition, the Ki on SMYD2 [1] (varied H3,1–29 peptide, Eq 6, read-out: Ki (noncompetitive versus peptide)) was 3.9 ± 0.4 nM. The results for the hepatocyte CLint at 1 µM in data set [2] and in data set [5] were 10.9 µL/min/1e6 cells and 6 µL/min/1e6 cells, respectively. The compound also had a half-life in [8] of 3.2 ± 1 h. This compound showed a Vd in data set [8] (iv, 2 mg/kg) of 4.5 ± 1 L/kg. In addition, in data set [8] (iv, 2 mg/kg), the clearance worked out at 37.4 ± 6.7 mL/min/kg. Besides, the bioavailability in data set [8] (oral, 10 mg/kg) amounted to 241 ± 20%. Besides, the Tmax in [8] (po, 10 mg/kg) amounted to 1.7 ± 0.6 h.

The values above are taken from PMC5983452 (PLoS ONE, 2018).
